Source: patent US20240150377A1, “MODULATORS OF CYSTIC FIBROSIS TRANSMEMBRANE CONDUCTANCE REGULATOR” (VERTEX PHARMACEUTICALS INCORPORATED, priority 2020, published 2024)

Target: T1, CFTR (Homo sapiens, UniProt P13569, DEL508-508)
T1 construct: endogenous in cells; host or cells: primary human bronchial epithelial cells from CF subjects (F508del/MF-HBE), differentiated at air-liquid interface
Assay: HBE2 assay: Ussing chamber assay of CFTR-mediated short-circuit currents
Format: cell-based
Details: F508del/MF-HBE cells, 18-24 hours, 20% human serum; for Emax: read-out: HBE2 Max activity (%)
In short: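 F508del/MF-HBE cultured >14 days at air-liquid interface, mounted in Ussing chambers; transepithelial short-circuit current recorded under voltage clamp (Vhold=0 mV) at 37 °C. CFTR-mediated ISC (μA/cm^2) taken as peak forskolin response relative to steady-state current after inhibition; corrector activity assessed this way.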

[1] = 3 μM corrector, with 44 nM potentiator

T1 sequence (P13569 with tags, fused parts or gaps DEL508-508): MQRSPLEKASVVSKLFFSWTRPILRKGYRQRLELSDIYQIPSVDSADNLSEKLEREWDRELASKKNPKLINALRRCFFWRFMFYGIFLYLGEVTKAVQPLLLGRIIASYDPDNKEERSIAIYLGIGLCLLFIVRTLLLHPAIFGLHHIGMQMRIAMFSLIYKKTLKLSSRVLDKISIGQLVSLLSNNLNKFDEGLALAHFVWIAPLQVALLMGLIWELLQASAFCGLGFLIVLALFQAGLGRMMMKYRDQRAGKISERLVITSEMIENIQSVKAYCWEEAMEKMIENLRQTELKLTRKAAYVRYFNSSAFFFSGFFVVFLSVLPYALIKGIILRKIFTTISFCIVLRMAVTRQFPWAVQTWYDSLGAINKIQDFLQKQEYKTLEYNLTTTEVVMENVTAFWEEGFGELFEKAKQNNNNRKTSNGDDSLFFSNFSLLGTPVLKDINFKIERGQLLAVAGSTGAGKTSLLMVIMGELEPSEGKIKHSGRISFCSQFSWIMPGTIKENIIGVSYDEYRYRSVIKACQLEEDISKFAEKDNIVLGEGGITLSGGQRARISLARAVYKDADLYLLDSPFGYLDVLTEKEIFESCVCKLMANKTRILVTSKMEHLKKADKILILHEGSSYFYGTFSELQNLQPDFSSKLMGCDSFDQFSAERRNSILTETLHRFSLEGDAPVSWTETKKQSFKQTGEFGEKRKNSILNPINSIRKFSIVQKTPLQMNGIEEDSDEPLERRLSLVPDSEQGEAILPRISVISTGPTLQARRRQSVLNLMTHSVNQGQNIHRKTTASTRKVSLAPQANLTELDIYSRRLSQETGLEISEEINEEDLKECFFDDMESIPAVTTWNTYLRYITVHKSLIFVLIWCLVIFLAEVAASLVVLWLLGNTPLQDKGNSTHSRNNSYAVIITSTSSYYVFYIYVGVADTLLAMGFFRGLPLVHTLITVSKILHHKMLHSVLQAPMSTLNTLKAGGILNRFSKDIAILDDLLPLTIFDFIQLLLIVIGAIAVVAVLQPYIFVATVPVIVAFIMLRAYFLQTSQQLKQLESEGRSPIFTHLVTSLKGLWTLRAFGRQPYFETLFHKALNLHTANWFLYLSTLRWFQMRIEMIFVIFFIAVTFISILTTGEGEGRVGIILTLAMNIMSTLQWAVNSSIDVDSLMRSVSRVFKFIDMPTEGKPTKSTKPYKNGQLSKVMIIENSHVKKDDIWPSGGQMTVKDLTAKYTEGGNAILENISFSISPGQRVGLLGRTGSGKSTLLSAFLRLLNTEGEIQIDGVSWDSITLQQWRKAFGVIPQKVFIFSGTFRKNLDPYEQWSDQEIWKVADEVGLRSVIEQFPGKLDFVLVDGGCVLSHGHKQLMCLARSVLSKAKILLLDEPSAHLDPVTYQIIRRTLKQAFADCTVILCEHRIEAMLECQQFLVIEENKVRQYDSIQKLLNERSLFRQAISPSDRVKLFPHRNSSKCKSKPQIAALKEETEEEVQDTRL

Row | HBE2 Activity at 3 μM (%) (3 μM, with 44 nM potentiator) | HBE2 Activity at 3 μM (%) [1] | Structure (SMILES) | also measured
1 | +++ (+++ is >60+) | – | Cc1cccc(C)c1-c1cc2nc(n1)NS(=O)(=O)c1cccc(c1)C(=O)N(Cc1cccc([C@@H](C)NC(=O)C(C)C)n1)[C@H](CC(C)(C)C)CO2 [Compound 1590] | –
2 | +++ (+++ is >60+) | – | CCCCN(C)c1cncc(CN2C(=O)c3cccc(c3)S(=O)(=O)Nc3nc(cc(-c4c(C)cccc4C)n3)OC[C@H]2CC(C)(C)C)n1 [Compound 1698] | –
3 | +++ (+++ is >60+) | – | Cc1cccc(C)c1-c1cc2nc(n1)NS(=O)(=O)c1cccc(c1)C(=O)N(Cc1cncc(N3CC4CC3(C)C4)n1)[C@H](CC(C)(C)C)CO2 [Compound 1691] | –
4 | – | +++ (+++ is >60+) | Cc1cccc(C)c1-c1cc2nc(n1)NS(=O)(=O)c1cccc(c1)C(=O)N(Cc1cnc3c(cc(C(C)C)n3C)n1)[C@H](CC(C)(C)C)CO2 [Compound 1858] | –
5 | – | +++ (+++ is >60+) | CCC(CC)N(C)c1cncc(CN2C(=O)c3cccc(c3)S(=O)(=O)Nc3nc(cc(-c4c(C)cccc4C)n3)OC[C@H]2CC(C)(C)C)n1 [Compound 1754] | –
6 | +++ (+++ is >60+) | – | CO[C@H](C)CN(C)c1cncc(CN2C(=O)c3cccc(c3)S(=O)(=O)Nc3nc(cc(-c4c(C)cccc4C)n3)OC[C@H]2CC(C)(C)C)n1 (stereo in doubt) [Compound 1634] | –
7 | +++ (+++ is >60+) | – | COCCN(C)c1nc(CN2C(=O)c3cccc(c3)S(=O)(=O)Nc3nc(cc(-c4c(C)cccc4C)n3)OC[C@H]2CC(C)(C)C)co1 [Compound 1409] | –
8 | – | +++ (+++ is >60+) | Cc1cccc(C)c1-c1cc2nc(n1)NS(=O)(=O)c1cccc(c1)C(=O)N(Cc1cncc(N(C)[C@@H]3CC[C@H]3C)n1)[C@H](CC(C)(C)C)CO2 (stereo in doubt) [Compound 1772] | –
9 | – | +++ (+++ is >60+) | Cc1cccc(C)c1-c1cc2nc(n1)NS(=O)(=O)c1cccc(c1)C(=O)N(Cc1cccc(N(C)C(C)C)n1)[C@H](CCC(C)(C)C)CO2 [Compound 1790] | –

Further lines, the compound ahead of its results:

Row | Structure (SMILES) | HBE2 Activity at 3 μM (%) (3 μM, with 44 nM potentiator) | HBE2 Activity at 3 μM (%) [1] | also measured
10 | Cc1cccc(C)c1-c1cc2nc(n1)NS(=O)(=O)c1cccc(c1)C(=O)N(Cc1cncc(N(C)CC3CCC3)n1)[C@H](CC(C)(C)C)CO2 [Compound 1614] | +++ (+++ is >60+) | – | –
11 | Cc1cccc(C)c1-c1cc2nc(n1)NS(=O)(=O)c1cccc(c1)C(=O)N(Cc1cncc(N(C)C3CCC3)n1)[C@H](CC1CCC1)CO2 [Compound 1669] | +++ (+++ is >60+) | – | EC50 (with 44 nM potentiator): < 1000 nM; Emax (with 44 nM potentiator): > 60%
12 | Cc1cccc(C)c1-c1cc2nc(n1)NS(=O)(=O)c1cccc(c1)C(=O)N(Cc1ncc(N3CCC(C)(C)C3)cn1)[C@H](CC(C)(C)F)CO2 [Compound 1564] | +++ (+++ is >60+) | – | –
13 | COCC1(CN(C)c2cncc(CN3C(=O)c4cccc(c4)S(=O)(=O)Nc4nc(cc(-c5c(C)cccc5C)n4)OC[C@H]3CCC(C)(C)C)n2)CC1 [Compound 1876] | – | +++ (+++ is >60+) | –
14 | Cc1cccc(C)c1-c1cc2nc(n1)NS(=O)(=O)c1cccc(c1)C(=O)N(Cc1ncc(OC3CCC3)cn1)[C@H](COC(C)C)CO2 [Compound 1956] | – | +++ (+++ is >60+) | –
15 | CC[C@H](C)[C@@H]1COc2cc(-c3c(C)cccc3C)nc(n2)NS(=O)(=O)c2cccc(c2)C(=O)N1Cc1cncc(N(C)C2CCC2)n1 [Compound 1703] | – | – | EC50 (with 44 nM potentiator): < 1000 nM; Emax (with 44 nM potentiator): > 60%
16 | Cc1cccc(C)c1-c1cc2nc(n1)NS(=O)(=O)c1cccc(c1)C(=O)N(Cc1cncc(N(C)[C@H]3C[C@H](F)C3)n1)[C@H](CCC(C)(C)C)CO2 [Compound 1849] | – | +++ (+++ is >60+) | –
17 | Cc1cccc(C)c1-c1cc2nc(n1)NS(=O)(=O)c1cccc(c1)C(=O)N(Cc1cncc(N3CCC[C@H]3C(C)C)n1)[C@H](CCC1CC1)CO2 [Compound 1720] | – | +++ (+++ is >60+) | EC50 (corrector at a range of concentrations with 44 nM potentiator): < 1000 nM; Emax (with 44 nM potentiator): > 60%
18 | Cc1cccc(C)c1-c1cc2nc(n1)NS(=O)(=O)c1cccc(c1)CN(Cc1ncc(OC(C)C)cn1)[C@H](CC(C)(C)C)CO2 [Compound 1298] | ++ (++ is 30-60%) | – | –
19 | Cc1cccc(C)c1-c1cc2nc(n1)NS(=O)(=O)c1cccc(c1)C(=O)N(Cc1cncc(N3CC[C@H]3COC(C)C)n1)[C@H](CCC(C)(C)C)CO2 [Compound 1868] | – | +++ (+++ is >60+) | –
20 | Cc1cccc(C)c1-c1cc2nc(n1)NS(=O)(=O)c1cccc(c1)C(=O)N(Cc1cncc(N(C)C(C)C)n1)[C@H](CC1CCCCC1)CO2 [Compound 1825] | – | +++ (+++ is >60+) | –
21 | Cc1cccc(C)c1-c1cc2nc(n1)NS(=O)(=O)c1cccc(c1)C(=O)N(Cc1cncc(N3CCCC[C@@H]3C)n1)[C@H](C1CC(C)(C)C1)CO2 (stereo in doubt) [Compound 1897] | – | + (+ is <300)) | –
22 | CO[C@@H](C)[C@@H]1CCCN1c1cncc(CN2C(=O)c3cccc(c3)S(=O)(=O)Nc3nc(cc(-c4c(C)cccc4C)n3)OC[C@H]2CCC(C)(C)C)n1 [Compound 1936] | – | +++ (+++ is >60+) | –
23 | CCC(C)(C)C[C@@H]1COc2cc(-c3c(C)cccc3C)nc(n2)NS(=O)(=O)c2cccc(c2)C(=O)N1Cc1cncc(N(C)C2CCC2)n1 (single isomer, unassigned) [Compound 1330, 12-[[6-[cyclobutyl(methyl)amino]pyrazin-2-yl]methyl]-11-(2,2-dimethylbutyl)-6-(2,6-dimethylphenyl)-2,2-dioxo-9-oxa-2λ^6-thia-3,5,12,19-tetrazatricyclo[12.3.1.14,8]nonadeca-1(18),4,6,8(19),14,16-hexaen-13-one] | – | +++ (+++ is >60+) | –
24 | Cc1cccc(C)c1-c1cc2nc(n1)NS(=O)(=O)c1cccc(c1)C(=O)N(Cc1cncc(N(C)C3CCC3)n1)[C@H](CCC(C)C)CO2 [Compound 1685] | +++ (+++ is >60+) | – | EC50 (with 44 nM potentiator): < 1000 nM; Emax (with 44 nM potentiator): > 60%
25 | Cc1cccc(C)c1-c1cc2nc(n1)NS(=O)(=O)c1cccc(c1)C(=O)N(Cc1cnc3cc(C(C)C)n(C)c3n1)[C@H](CCC(C)C)CO2 [Compound 1827] | – | +++ (+++ is >60+) | –
26 | Cc1cccc(C)c1-c1cc2nc(n1)NS(=O)(=O)c1cccc(c1)C(=O)N(Cc1cncc(N3CCC[C@H]3C)n1)[C@H](C[C@H]1CCCOC1)CO2 (stereo in doubt) [Compound 1940] | – | +++ (+++ is >60+) | –
27 | CCCOc1cnc(CN2C(=O)c3cccc(c3)S(=O)(=O)Nc3nc(cc(-c4c(C)cccc4C)n3)OC[C@H]2CCC2CC2)nc1 [Compound 1600] | +++ (+++ is >60+) | – | –
28 | Cc1cccc(C)c1-c1cc2nc(n1)NS(=O)(=O)c1cccc(c1)C(=O)N(Cc1cncc(N3CCCC3c3ccnn3C)n1)[C@H](CC(C)(C)C)CO2 (some centres unmarked) [Compound 1606] | +++ (+++ is >60+) | – | –
29 | Cc1cccc(C)c1-c1cc2nc(n1)NS(=O)(=O)c1cccc(c1)C(=O)N(Cc1nccc(N(C)C(C)C)n1)[C@H](CCC(C)C)CO2 [Compound 1734] | – | +++ (+++ is >60+) | –
30 | Cc1cccc(C)c1-c1cc2nc(n1)NS(=O)(=O)c1cccc(c1)C(=O)N(Cc1ncc(OC(C)C)cn1)[C@H](CC1CCC1)[C@@H](C)O2 [Compound 1568] | +++ (+++ is >60+) | – | –
31 | Cc1cccc(C)c1-c1cc2nc(n1)NS(=O)(=O)c1cccc(c1)C(=O)N(Cc1cncc(N3CCCC[C@H]3C)n1)[C@@H](CCC(C)(C)F)CO2 (single isomer, unassigned) [Compound 1327] | – | +++ (+++ is >60+) | –
